“And” between values parts separate entries of the source, which are not always exact repeats. Equal entries are not always repeated.
Legend:
Set-up in all cases: scale not given: the % may be the effect or the level left
[1] = tested on: Phosphatidylinositol 4,5-bisphosphate 3-kinase catalytic subunit alpha isoform (Homo sapiens), P42336 [E542K]; assay: Inhibition of human PIK3CA E542K mutant assessed as percent of control at 2000 nM by KINOMEscan assay relative to control
[2] = tested on: Epidermal growth factor receptor (Homo sapiens), P00533 [UNDEFINED MUTATION]; assay: Inhibition of human EGFR L747-T751del/Sins double mutant assessed as percent of control at 2000 nM by KINOMEscan assay relative to control
[3] = target: Myosin light chain kinase, smooth muscle (Homo sapiens) (UniProt Q15746); assay: Inhibition of human MYLK assessed as percent of control at 2000 nM by KINOMEscan assay relative to control
[4] = target: Vascular endothelial growth factor receptor 1 (Homo sapiens) (UniProt P17948); assay: Inhibition of human FLT1 assessed as percent of control at 2000 nM by KINOMEscan assay relative to control
[5] = target: 5'-AMP-activated protein kinase catalytic subunit alpha-2 (Homo sapiens) (UniProt P54646); assay: Inhibition of human AMPK-alpha2 assessed as percent of control at 2000 nM by KINOMEscan assay relative to control
[6] = target: Mitogen-activated protein kinase kinase kinase 11 (Homo sapiens) (UniProt Q16584); assay: Inhibition of human MLK3 assessed as percent of control at 2000 nM by KINOMEscan assay relative to control
[7] = target: Ankyrin repeat and protein kinase domain-containing protein 1 (Homo sapiens) (UniProt Q8NFD2); assay: Inhibition of human ANKK1 assessed as percent of control at 2000 nM by KINOMEscan assay relative to control
[8] = target: Tyrosine-protein kinase FRK (Homo sapiens) (UniProt P42685); assay: Inhibition of human FRK assessed as percent of control at 2000 nM by KINOMEscan assay relative to control
[9] = target: Mitogen-activated protein kinase 8 (Homo sapiens) (UniProt P45983); assay: Inhibition of human JNK1 assessed as percent of control at 2000 nM by KINOMEscan assay relative to control
[10] = target: Serine/threonine-protein kinase Sgk1 (Homo sapiens) (UniProt O00141); assay: Inhibition of human SGK assessed as percent of control at 2000 nM by KINOMEscan assay relative to control
[11] = target: Tyrosine-protein kinase Fes/Fps (Homo sapiens) (UniProt P07332); assay: Inhibition of human FES assessed as percent of control at 2000 nM by KINOMEscan assay relative to control
[12] = target: Serine/threonine-protein kinase WNK1 (Homo sapiens) (UniProt Q9H4A3); assay: Inhibition of human WNK1 assessed as percent of control at 2000 nM by KINOMEscan assay relative to control
[13] = tested on: Tyrosine-protein kinase ABL1 (Homo sapiens), P00519 [UNDEFINED MUTATION]; assay: Inhibition of non-phosphorylated human ABL1 […] mutant assessed as percent of control at 2000 nM by KINOMEscan assay relative to control
[14] = target: Inhibitor of nuclear factor kappa-B kinase subunit epsilon (Homo sapiens) (UniProt Q14164); assay: Inhibition of human IKK-epsilon assessed as percent of control at 2000 nM by KINOMEscan assay relative to control
[15] = target: Transient receptor potential cation channel subfamily M member 6 (Homo sapiens) (UniProt Q9BX84); assay: Inhibition of human TRPM6 assessed as percent of control at 2000 nM by KINOMEscan assay relative to control
[16] = target: Dual specificity testis-specific protein kinase 1 (Homo sapiens) (UniProt Q15569); assay: Inhibition of human TESK1 assessed as percent of control at 2000 nM by KINOMEscan assay relative to control
Dual specificity testis-specific protein kinase 1 (Homo sapiens), sequence (Q15569 whole entry, looked up): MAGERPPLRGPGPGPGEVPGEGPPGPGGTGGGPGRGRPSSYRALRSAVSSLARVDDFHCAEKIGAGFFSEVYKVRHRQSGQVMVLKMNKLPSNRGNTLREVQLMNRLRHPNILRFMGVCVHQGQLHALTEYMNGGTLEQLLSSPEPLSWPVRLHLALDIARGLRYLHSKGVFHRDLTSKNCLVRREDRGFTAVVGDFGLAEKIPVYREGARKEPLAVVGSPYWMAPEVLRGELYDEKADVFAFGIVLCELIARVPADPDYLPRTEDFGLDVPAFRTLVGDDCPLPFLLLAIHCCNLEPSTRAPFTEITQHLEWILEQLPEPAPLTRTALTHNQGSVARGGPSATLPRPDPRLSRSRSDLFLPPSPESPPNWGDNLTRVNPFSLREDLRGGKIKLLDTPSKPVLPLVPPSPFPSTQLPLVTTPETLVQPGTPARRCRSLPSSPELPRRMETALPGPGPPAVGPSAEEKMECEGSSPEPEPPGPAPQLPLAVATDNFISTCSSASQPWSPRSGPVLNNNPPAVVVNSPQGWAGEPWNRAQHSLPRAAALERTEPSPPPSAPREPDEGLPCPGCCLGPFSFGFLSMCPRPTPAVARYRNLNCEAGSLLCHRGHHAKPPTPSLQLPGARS

[17] = target: Megakaryocyte-associated tyrosine-protein kinase (Homo sapiens) (UniProt P42679); assay: Inhibition of human CTK assessed as percent of control at 2000 nM by KINOMEscan assay relative to control
[18] = target: Mitogen-activated protein kinase kinase kinase 19 (Homo sapiens) (UniProt Q56UN5); assay: Inhibition of human YSK4 assessed as percent of control at 2000 nM by KINOMEscan assay relative to control
[19] = target: ALK tyrosine kinase receptor (Homo sapiens) (UniProt Q9UM73); assay: Inhibition of human ALK assessed as percent of control at 2000 nM by KINOMEscan assay relative to control
[20] = tested on: Tyrosine-protein kinase ABL1 (Homo sapiens), P00519 [Q252H]; assay: Inhibition of non-phosphorylated human ABL1 Q252H mutant assessed as percent of control at 2000 nM by KINOMEscan assay relative to control
[21] = target: Fibroblast growth factor receptor 2 (Homo sapiens) (UniProt P21802); assay: Inhibition of human FGFR2 assessed as percent of control at 2000 nM by KINOMEscan assay relative to control
[22] = target: Vascular endothelial growth factor receptor 3 (Homo sapiens) (UniProt P35916); assay: Inhibition of human FLT4 assessed as percent of control at 2000 nM by KINOMEscan assay relative to control
Vascular endothelial growth factor receptor 3 (Homo sapiens), sequence (P35916 whole entry): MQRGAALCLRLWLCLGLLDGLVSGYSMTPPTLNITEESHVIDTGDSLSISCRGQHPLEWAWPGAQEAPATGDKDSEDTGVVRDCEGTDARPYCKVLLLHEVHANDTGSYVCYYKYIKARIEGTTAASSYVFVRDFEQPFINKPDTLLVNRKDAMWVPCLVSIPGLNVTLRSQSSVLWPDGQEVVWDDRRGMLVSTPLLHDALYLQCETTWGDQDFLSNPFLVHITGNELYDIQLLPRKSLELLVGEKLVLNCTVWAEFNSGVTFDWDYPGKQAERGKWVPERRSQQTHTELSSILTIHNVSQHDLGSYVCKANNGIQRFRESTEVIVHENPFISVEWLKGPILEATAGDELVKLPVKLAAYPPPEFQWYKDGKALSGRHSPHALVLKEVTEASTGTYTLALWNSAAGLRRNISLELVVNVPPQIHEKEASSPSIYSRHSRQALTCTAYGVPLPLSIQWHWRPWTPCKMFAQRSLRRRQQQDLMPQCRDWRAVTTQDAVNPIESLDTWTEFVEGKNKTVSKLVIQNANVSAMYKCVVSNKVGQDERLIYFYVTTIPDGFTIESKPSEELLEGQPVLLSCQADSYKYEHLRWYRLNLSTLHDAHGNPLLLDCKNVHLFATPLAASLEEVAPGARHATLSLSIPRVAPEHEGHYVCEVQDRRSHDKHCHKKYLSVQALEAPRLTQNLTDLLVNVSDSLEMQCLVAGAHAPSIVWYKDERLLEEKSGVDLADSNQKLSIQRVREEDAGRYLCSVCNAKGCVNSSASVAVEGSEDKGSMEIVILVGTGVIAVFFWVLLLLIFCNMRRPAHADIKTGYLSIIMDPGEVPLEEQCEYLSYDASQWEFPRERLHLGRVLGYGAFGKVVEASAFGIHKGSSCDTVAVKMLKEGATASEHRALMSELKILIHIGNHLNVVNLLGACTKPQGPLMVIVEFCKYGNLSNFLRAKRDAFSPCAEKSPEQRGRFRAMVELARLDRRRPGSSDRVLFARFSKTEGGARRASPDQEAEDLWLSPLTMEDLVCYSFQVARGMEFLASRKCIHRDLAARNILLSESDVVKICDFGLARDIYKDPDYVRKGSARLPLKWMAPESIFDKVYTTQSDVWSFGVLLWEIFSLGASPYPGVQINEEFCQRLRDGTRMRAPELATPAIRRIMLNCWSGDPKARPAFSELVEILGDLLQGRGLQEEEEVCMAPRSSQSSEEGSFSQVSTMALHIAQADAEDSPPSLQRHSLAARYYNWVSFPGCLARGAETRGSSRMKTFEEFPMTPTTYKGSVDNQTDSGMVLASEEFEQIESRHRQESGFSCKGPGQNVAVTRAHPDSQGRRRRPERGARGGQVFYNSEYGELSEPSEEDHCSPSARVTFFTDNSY

[23] = tested on: Mast/stem cell growth factor receptor Kit (Homo sapiens), P10721 [V559D]; assay: Inhibition of human KIT V559D mutant assessed as percent of control at 2000 nM by KINOMEscan assay relative to control
[24] = target: Serine/threonine-protein kinase ICK (Homo sapiens) (UniProt Q9UPZ9); assay: Inhibition of human ICK assessed as percent of control at 2000 nM by KINOMEscan assay relative to control
Serine/threonine-protein kinase ICK (Homo sapiens), sequence (Q9UPZ9 whole entry): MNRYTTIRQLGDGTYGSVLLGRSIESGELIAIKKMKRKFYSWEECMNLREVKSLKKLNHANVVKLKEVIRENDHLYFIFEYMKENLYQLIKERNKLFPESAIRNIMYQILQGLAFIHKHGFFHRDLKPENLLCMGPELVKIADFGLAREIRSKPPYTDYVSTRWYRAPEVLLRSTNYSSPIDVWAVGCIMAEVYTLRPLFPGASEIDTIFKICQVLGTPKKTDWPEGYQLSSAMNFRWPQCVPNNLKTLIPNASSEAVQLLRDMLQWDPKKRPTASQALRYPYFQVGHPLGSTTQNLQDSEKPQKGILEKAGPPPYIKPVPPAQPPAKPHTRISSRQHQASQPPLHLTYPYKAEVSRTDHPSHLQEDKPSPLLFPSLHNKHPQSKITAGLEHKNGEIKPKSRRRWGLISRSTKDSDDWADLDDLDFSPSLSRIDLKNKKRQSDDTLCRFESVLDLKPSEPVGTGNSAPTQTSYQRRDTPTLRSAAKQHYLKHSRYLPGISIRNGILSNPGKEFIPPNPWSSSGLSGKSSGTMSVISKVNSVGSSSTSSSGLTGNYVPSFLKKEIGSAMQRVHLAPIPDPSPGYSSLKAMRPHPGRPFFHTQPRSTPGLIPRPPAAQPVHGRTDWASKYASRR

[25] = target: Receptor-interacting serine/threonine-protein kinase 2 (Homo sapiens) (UniProt O43353); assay: Inhibition of human RIPK2 assessed as percent of control at 2000 nM by KINOMEscan assay relative to control
Receptor-interacting serine/threonine-protein kinase 2 (Homo sapiens), sequence (O43353 whole entry): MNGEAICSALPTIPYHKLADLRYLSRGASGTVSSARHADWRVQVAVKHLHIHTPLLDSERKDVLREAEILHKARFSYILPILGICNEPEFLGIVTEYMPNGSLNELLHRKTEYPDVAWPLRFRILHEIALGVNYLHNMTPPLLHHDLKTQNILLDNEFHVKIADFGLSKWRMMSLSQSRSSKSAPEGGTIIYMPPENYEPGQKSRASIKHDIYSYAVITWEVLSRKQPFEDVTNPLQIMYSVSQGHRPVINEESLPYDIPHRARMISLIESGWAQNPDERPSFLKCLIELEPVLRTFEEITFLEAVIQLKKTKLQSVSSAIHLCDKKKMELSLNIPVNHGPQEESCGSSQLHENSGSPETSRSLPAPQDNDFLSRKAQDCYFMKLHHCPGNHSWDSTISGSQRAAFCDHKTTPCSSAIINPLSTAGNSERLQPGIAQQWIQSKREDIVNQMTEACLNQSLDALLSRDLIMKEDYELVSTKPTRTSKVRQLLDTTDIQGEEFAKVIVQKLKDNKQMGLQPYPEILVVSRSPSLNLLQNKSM

[26] = target: Mast/stem cell growth factor receptor Kit (Homo sapiens) (UniProt P10721); assay: Inhibition of human autoinhibited KIT assessed as percent of control at 2000 nM by KINOMEscan assay relative to control
[27] = target: Serine/threonine-protein kinase tousled-like 2 (Homo sapiens) (UniProt Q86UE8); assay: Inhibition of human TLK2 assessed as percent of control at 2000 nM by KINOMEscan assay relative to control
Serine/threonine-protein kinase tousled-like 2 (Homo sapiens), sequence (Q86UE8 whole entry, looked up): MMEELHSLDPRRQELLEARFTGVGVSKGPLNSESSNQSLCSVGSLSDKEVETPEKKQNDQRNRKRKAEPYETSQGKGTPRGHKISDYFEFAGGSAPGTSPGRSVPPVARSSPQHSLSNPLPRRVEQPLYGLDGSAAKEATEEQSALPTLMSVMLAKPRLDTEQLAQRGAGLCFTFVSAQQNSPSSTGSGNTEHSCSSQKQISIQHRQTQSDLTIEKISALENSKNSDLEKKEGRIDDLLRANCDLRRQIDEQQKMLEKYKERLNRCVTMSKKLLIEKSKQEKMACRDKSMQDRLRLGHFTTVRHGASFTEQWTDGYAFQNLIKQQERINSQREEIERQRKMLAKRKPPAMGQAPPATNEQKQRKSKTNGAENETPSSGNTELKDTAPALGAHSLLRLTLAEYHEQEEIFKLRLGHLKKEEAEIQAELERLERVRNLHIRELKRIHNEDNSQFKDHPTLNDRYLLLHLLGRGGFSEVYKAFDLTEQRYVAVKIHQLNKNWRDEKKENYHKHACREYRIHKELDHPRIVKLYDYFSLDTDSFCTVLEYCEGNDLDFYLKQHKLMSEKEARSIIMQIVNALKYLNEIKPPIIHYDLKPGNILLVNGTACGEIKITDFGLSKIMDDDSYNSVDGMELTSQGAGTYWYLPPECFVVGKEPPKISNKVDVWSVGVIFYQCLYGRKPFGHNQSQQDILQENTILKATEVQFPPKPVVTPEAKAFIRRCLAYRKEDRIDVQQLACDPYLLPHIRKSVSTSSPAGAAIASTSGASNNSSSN

[28] = target: Ribosomal protein S6 kinase beta-1 (Homo sapiens) (UniProt P23443); assay: Inhibition of human S6K1 assessed as percent of control at 2000 nM by KINOMEscan assay relative to control
[29] = target: TRAF2 and NCK-interacting protein kinase (Homo sapiens) (UniProt Q9UKE5); assay: Inhibition of human TNIK assessed as percent of control at 2000 nM by KINOMEscan assay relative to control
[30] = target: Mitogen-activated protein kinase 6 (Homo sapiens) (UniProt Q16659); assay: Inhibition of human ERK3 assessed as percent of control at 2000 nM by KINOMEscan assay relative to control

Phosphatidylinositol 4,5-bisphosphate 3-kinase catalytic subunit alpha isoform (Homo sapiens), P42336 [E542K], sequence (P42336 whole entry E542K, canonical isoform): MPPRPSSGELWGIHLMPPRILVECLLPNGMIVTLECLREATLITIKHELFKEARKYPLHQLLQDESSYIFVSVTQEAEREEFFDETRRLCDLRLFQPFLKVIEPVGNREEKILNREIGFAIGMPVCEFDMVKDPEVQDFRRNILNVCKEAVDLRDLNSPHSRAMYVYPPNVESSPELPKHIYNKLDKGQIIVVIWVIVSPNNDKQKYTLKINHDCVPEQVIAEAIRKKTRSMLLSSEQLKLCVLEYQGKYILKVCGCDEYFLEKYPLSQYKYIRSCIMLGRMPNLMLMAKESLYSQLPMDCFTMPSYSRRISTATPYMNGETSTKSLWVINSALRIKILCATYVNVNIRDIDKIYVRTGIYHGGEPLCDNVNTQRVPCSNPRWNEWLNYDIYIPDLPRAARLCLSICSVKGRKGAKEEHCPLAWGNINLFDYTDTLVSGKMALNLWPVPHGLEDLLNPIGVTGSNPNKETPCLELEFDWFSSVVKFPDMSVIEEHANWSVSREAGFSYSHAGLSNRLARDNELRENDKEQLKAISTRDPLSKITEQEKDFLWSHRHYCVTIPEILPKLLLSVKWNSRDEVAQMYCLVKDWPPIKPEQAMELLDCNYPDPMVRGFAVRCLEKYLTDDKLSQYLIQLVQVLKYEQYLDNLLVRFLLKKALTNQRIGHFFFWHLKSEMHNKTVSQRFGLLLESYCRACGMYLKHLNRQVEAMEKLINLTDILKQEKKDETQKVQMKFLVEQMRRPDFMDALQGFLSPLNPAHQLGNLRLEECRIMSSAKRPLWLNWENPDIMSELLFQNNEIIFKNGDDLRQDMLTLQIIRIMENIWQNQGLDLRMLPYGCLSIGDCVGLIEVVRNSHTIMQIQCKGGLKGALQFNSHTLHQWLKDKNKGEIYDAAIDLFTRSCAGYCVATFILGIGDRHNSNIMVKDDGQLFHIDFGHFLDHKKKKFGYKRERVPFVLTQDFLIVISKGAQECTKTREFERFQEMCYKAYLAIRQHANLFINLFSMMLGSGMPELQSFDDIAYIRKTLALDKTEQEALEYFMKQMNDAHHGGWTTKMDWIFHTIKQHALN

Compound: CN(C)C(=O)c1ccc(N2CCCN(c3ccnc4sc(C(N)=O)c(N)c34)CC2)cc1
- Activity [1]: 92% and 74%
- Activity [2]: 87% and 100%
- Activity [3]: 74% and 71%
- Activity [4]: 100%
- Activity [5]: 80% and 95%
- Activity [6]: 99% and 100%
- Activity [7]: 100% and 91%
- Activity [8]: 100% and 97%
- Activity [9]: 68%
- Activity ([9]; INHIBITOR): 30%
- Activity [10]: 86% and 83%
- Activity [11]: 100%
- Activity [12]: 100% and 93%
- Activity [13]: 100% and 76%
- Activity [14]: 100%
- Activity [15]: 100% and 80%
- Activity [16]: 83% and 100%
- Activity [17]: 92% and 100%
- Activity [18]: 74% and 53%
- Activity [19]: 81% and 78%
- Activity [20]: 94% and 75%
- Activity [21]: 99% and 98%
- Activity [22]: 92% and 98%
- Activity [23]: 98% and 91%
- Activity [24]: 84% and 66%
- Activity [25]: 100% and 93%
- Activity [26]: 90%
- Activity [27]: 100% and 97%
- Activity [28]: 95% and 89%
- Activity [29]: 100% and 91%
- Activity [30]: 88% and 94%

Reference: ChEMBL document CHEMBL4804286, “3-amino-4-(4-(4 (dimethylcarbamoyl) phenyl)-1,4-diazepan-1-yl) thieno [2,3-b] pyridine-2-carboxamide for use in cancer therapy and formulations comprising the same” (2020)
